Like-named read-outs stand apart in the source and are kept apart here.
What was measured:
[1] = molecular target: T1, human adenosine receptor A2A (A2AR) (Homo sapiens, UniProt P29274); assay: Adenosine receptor binding assay, radioligand competitive binding, [3H]CGS21680; conditions: membrane homogenates from HEK293 cells transfected with A2AR, 6 nM [3H]CGS21680
T1 construct: host or cells: HEK293 cells (membrane homogenates)
Method: (§1) Binding affinity of test compounds to four human adenosine receptors, A1, A2A, A2B and A3 was determined in radioligand competitive binding assay (conducted by Cerep, France) using following protocols. For A1 receptor (A1R), membrane homogenates from CHO cells transfected with A1R were incubated for 60 min at 22° C. with 1 nM [3H]DPCPX in the absence or presence of the test compound in a buffer containing 50 mM Tris-HCl (pH 7.4), 5 mM MgCl2, 1 mM EDTA/Tris and 2 UI/mL ADA. For A2AR, membrane homogenates from HEK293 cells transfected with A2AR were incubated for 120 min at 22° C. with 6 nM [3H]CGS21680 in the absence or presence of the test compound in a buffer containing 50 mM Tris-HCl (pH 7.4), 10 mM MgCl2, and 2 UI/mL ADA. For A2B receptor (A2BR), membrane homogenates from HEK293 cells transfected with A2BR were incubated for 60 min at 22° C. with 5 nM [3H]CPX in the absence or presence of the test compound in a buffer containing 10 mM Hepes/Tris (pH 7), 1 mM MgCl2, and 1 mM EDTA. For A3 receptor (A3R), membrane homogenates from HEK293 cells transfected with A3R were incubated for 120 min at 22° C. with 0.15 nM [125I]AB-MECA in the absence or presence of the test compound in a buffer containing 50 mM Tris-HCl (pH 7.4), 5 mM MgCl2, 1 mM EDTA and 2 UI/mL ADA. Nonspecific binding was determined in the presence of unlabeled 1 μM DPCPX, 10 μM NECA, 100 μM NECA, and 1 μM IB-MECA in A1R, A2AR, A2BR, A3R binding assays, respectively. Following incubation, the samples are rapidly filtered and washed with ice-cold 50 mM Tris-HCl. Then filters are dried and counted for radioactivity in a scintillation counter (Topcount, Packard) using a scintillation cocktail (Microscint 0, Packard). Duplicate experiments were performed for each assay. The results are expressed as a percent inhibition of control radioligand specific binding.

[2] = molecular target: T2, human adenosine receptor A1 (A1R) (Homo sapiens, UniProt P30542); assay: Adenosine receptor binding assay, radioligand competitive binding, [3H]DPCPX; conditions: membrane homogenates from CHO cells transfected with A1R, 1 nM [3H]DPCPX
T2 construct: host or cells: CHO cells (membrane homogenates)
T2 sequence (P30542 1-326): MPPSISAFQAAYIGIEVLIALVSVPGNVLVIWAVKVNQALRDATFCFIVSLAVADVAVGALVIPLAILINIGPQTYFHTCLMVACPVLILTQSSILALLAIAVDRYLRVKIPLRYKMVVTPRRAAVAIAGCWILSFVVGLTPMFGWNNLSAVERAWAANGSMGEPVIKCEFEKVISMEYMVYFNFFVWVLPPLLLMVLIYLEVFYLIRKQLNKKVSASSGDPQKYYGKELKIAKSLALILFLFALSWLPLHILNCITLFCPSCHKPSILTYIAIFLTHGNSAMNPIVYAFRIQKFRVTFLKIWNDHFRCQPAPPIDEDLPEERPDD
Method: as §1

Mouse BBB assay = assay type: in vivo; conditions: oral 10 mg/kg
Method: Mice were acclimated for 1 week prior to use at 18-30 g body weight. Fasted mice were dosed orally at 10 mg/kg dose. At 1, 2 and 4 hours postdose, plasma samples from cardiac blood collected in tubes containing K2EDTA as the anticoagulant, and excised cerebral hemispheres were immediately frozen and stored at −80° C. until bioanalysis. Total concentrations of the compound were determined by LC-MS/MS. Brain homogenate concentrations were converted to brain concentrations for the calculations of brain-to-plasma ratios.

[3] = molecular target: human A2A receptor (A2AR) (Homo sapiens, UniProt P29274); assay: Luciferase reporter assay (HEK293-A2AR-luc2p/CRE/Hygro cells, 3 nM CGS21680); assay type: cell-based; conditions: 3 nM CGS21680, 5 h incubation
Method in brief: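 Antagonist (0.1–10000 nM) and 3 nM CGS21680 were co-added for 5 h to stable HEK293-A2AR-luc2p/CRE cells, 18 h after seeding in 1% FBS medium containing adenosine deaminase. Luminescence was normalized to agonist alone (100%), and IC50 came from the dose–inhibition curve.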

Chain of human A2A receptor (A2AR) (P29274 whole entry): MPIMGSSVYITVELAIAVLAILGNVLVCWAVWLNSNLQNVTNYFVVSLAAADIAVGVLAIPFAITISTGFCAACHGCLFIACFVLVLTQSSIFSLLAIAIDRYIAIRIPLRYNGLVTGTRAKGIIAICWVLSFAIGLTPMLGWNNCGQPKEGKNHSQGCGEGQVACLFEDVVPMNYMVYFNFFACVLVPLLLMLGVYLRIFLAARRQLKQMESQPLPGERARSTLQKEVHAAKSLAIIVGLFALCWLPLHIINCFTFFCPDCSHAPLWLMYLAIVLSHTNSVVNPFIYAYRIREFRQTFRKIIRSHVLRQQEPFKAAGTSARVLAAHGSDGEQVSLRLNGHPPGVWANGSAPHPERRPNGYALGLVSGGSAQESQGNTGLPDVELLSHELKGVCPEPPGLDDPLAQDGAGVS
T1 sequence (P29274 whole entry): as above

- Ki [1]: 1.4 nM
- Ki [2]: 81 nM
- concentration at 1 h (Mouse BBB assay; brain, read-out: Brain): 4.2 ng/g
- concentration at 1 h (Mouse BBB assay; plasma, read-out: Plasma): 173 ng/mL
- IC50 [3]: 5 nM
Compound: CCCC(C(=O)N1CCN(c2ccc(OCCOCCOC)cc2)CC1)n1ncc2c1nc(N)n1nc(-c3ccco3)nc21 (single isomer, unassigned) [Compound A6a, 2-(5-amino-2-(furan-2-yl)-7H-pyrazolo[4,3-e][1,2,4]triazolo[1,5-c]pyrimidin-7-yl)-1-(4-(4-(2-(2-methoxyethoxy)ethoxy)phenyl)piperazin-1-yl)pentan-1-one]
